Assay results published in the supplement of paper PMC10307832.

Assays:
Assay in all cases: relative viability (nuclei count vs DMSO), 5 days (fraction); higher = more cells survive
NCI-H1651 = test system: NCI-H1651
Outline: (§1)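 Medians of duplicate plates are given as relative viability. That measure is the nuclei count in treated wells divided by the count in vehicle wells. Counts were taken on 4× images of lung cancer cell lines in 1536-well plates, 5 days after pin-tool dosing the day after seeding with one drug alone or a fixed anchor-drug dose plus five library-drug doses (not always all listed) in √10 steps.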

NCI-H838 = test system: NCI-H838
Outline: as §1

NCI-H661 = test system: NCI-H661
Outline: as §1

NCI-H1944 = test system: NCI-H1944
Outline: as §1

NCI-H358 = test system: NCI-H358
Outline: as §1

NCI-H2087 = test system: NCI-H2087
Outline: as §1

PC-3 [JPC-3] = test system: PC-3 [JPC-3]
Outline: as §1

NCI-H2342 = test system: NCI-H2342
Outline: as §1

NCI-H596 = test system: NCI-H596
Outline: as §1

LU99A = test system: LU99A
Outline: as §1

NCI-H1666 = test system: NCI-H1666
Outline: as §1

BEN = test system: BEN
Outline: as §1

NCI-H650 = test system: NCI-H650
Outline: as §1

LK-2 = test system: LK-2
Outline: as §1

LCLC-97TM1 = test system: LCLC-97TM1
Outline: as §1

HCC-78 = test system: HCC-78
Outline: as §1

SK-MES-1 = test system: SK-MES-1
Outline: as §1

NCI-H1355 = test system: NCI-H1355
Outline: as §1

LC-2-ad = test system: LC-2-ad
Outline: as §1

ChaGo-K-1 = test system: ChaGo-K-1
Outline: as §1

NCI-H1975 = test system: NCI-H1975
Outline: as §1

LXF-289 = test system: LXF-289
Outline: as §1

CCN(CC)CCCCNc1ncc2cc(-c3cc(OC)cc(OC)c3)c(NC(=O)NC(C)(C)C)nc2n1 + COc1cc2c(Oc3ccc(NC(=O)C4(C(=O)Nc5ccc(F)cc5)CC4)cc3F)ccnc2cc1OCCCN1CCOCC1 [Foretinib] (partner 0.25 µM)
relative viability (NCI-H1651; first compound 0.01 µM): 0.789 | relative viability (NCI-H1651; first compound 0.03162 µM): 0.949 | relative viability (NCI-H1651; first compound 0.1 µM): 0.82 | relative viability (NCI-H1651; first compound 0.3162 µM): 0.761 | relative viability (NCI-H1651; first compound 1 µM): 0.748 | relative viability (NCI-H838; first compound 0.01 µM): 1.01 | relative viability (NCI-H838; first compound 0.03162 µM): 0.958 | relative viability (NCI-H838; first compound 0.1 µM): 1.19 | relative viability (NCI-H838; first compound 0.3162 µM): 0.986 | relative viability (NCI-H838; first compound 1 µM): 0.789 | relative viability (NCI-H661; first compound 0.01 µM): 1.07 | relative viability (NCI-H661; first compound 0.03162 µM): 1.04 | relative viability (NCI-H661; first compound 0.1 µM): 1.03 | relative viability (NCI-H661; first compound 0.3162 µM): 1.07 | relative viability (NCI-H661; first compound 1 µM): 1.02 | relative viability (NCI-H1944; first compound 0.01 µM): 0.848 | relative viability (NCI-H1944; first compound 0.03162 µM): 0.873 | relative viability (NCI-H1944; first compound 0.1 µM): 0.844 | relative viability (NCI-H1944; first compound 0.3162 µM): 0.946 | relative viability (NCI-H1944; first compound 1 µM): 0.771 | relative viability (NCI-H358; first compound 0.01 µM): 0.71 | relative viability (NCI-H358; first compound 0.03162 µM): 0.638 | relative viability (NCI-H358; first compound 0.1 µM): 0.679 | relative viability (NCI-H358; first compound 0.3162 µM): 0.815 | relative viability (NCI-H358; first compound 1 µM): 0.625 | relative viability (NCI-H2087; first compound 0.01 µM): 1.25 | relative viability (NCI-H2087; first compound 0.03162 µM): 1.13 | relative viability (NCI-H2087; first compound 0.1 µM): 1.45 | relative viability (NCI-H2087; first compound 0.3162 µM): 1.16 | relative viability (NCI-H2087; first compound 1 µM): 1.21 | relative viability (PC-3 [JPC-3]; first compound 0.01 µM): 1.08 | relative viability (PC-3 [JPC-3]; first compound 0.03162 µM): 1.07 | relative viability (PC-3 [JPC-3]; first compound 0.1 µM): 1.13 | relative viability (PC-3 [JPC-3]; first compound 0.3162 µM): 1.16 | relative viability (PC-3 [JPC-3]; first compound 1 µM): 1.04 | relative viability (NCI-H2342; first compound 0.01 µM): 1.19 | relative viability (NCI-H2342; first compound 0.03162 µM): 1.23 | relative viability (NCI-H2342; first compound 0.1 µM): 1.19 | relative viability (NCI-H2342; first compound 0.3162 µM): 1.03 | relative viability (NCI-H2342; first compound 1 µM): 1 | relative viability (NCI-H596; first compound 0.01 µM): 0.852 | relative viability (NCI-H596; first compound 0.03162 µM): 0.919 | relative viability (NCI-H596; first compound 0.1 µM): 0.943 | relative viability (NCI-H596; first compound 0.3162 µM): 0.931 | relative viability (NCI-H596; first compound 1 µM): 0.73 | relative viability (LU99A; first compound 0.01 µM): 0.828 | relative viability (LU99A; first compound 0.03162 µM): 0.888 | relative viability (LU99A; first compound 0.1 µM): 0.91 | relative viability (LU99A; first compound 0.3162 µM): 0.867 | relative viability (LU99A; first compound 1 µM): 0.782 | relative viability (NCI-H1666; first compound 0.01 µM): 0.936 | relative viability (NCI-H1666; first compound 0.03162 µM): 0.979 | relative viability (NCI-H1666; first compound 0.1 µM): 0.977 | relative viability (NCI-H1666; first compound 0.3162 µM): 0.892 | relative viability (NCI-H1666; first compound 1 µM): 0.919 | relative viability (BEN; first compound 0.01 µM): 0.597 | relative viability (BEN; first compound 0.03162 µM): 0.544 | relative viability (BEN; first compound 0.1 µM): 0.796 | relative viability (BEN; first compound 0.3162 µM): 0.618 | relative viability (BEN; first compound 1 µM): 0.382 | relative viability (NCI-H650; first compound 0.01 µM): 0.968 | relative viability (NCI-H650; first compound 0.03162 µM): 0.992 | relative viability (NCI-H650; first compound 0.1 µM): 1.06 | relative viability (NCI-H650; first compound 0.3162 µM): 1.09 | relative viability (NCI-H650; first compound 1 µM): 1.13 | relative viability (LK-2; first compound 0.01 µM): 1.06 | relative viability (LK-2; first compound 0.03162 µM): 1.13 | relative viability (LK-2; first compound 0.1 µM): 1.66 | relative viability (LK-2; first compound 0.3162 µM): 0.962 | relative viability (LK-2; first compound 1 µM): 0.663 | relative viability (LCLC-97TM1; first compound 0.01 µM): 1.1 | relative viability (LCLC-97TM1; first compound 0.03162 µM): 0.94 | relative viability (LCLC-97TM1; first compound 0.1 µM): 1.03 | relative viability (LCLC-97TM1; first compound 0.3162 µM): 1.06 | relative viability (LCLC-97TM1; first compound 1 µM): 0.95 | relative viability (HCC-78; first compound 0.01 µM): 0.583 | relative viability (HCC-78; first compound 0.03162 µM): 0.53 | relative viability (HCC-78; first compound 0.1 µM): 0.586 | relative viability (HCC-78; first compound 0.3162 µM): 0.55 | relative viability (HCC-78; first compound 1 µM): 0.56 | relative viability (SK-MES-1; first compound 0.01 µM): 0.973 | relative viability (SK-MES-1; first compound 0.03162 µM): 1.17 | relative viability (SK-MES-1; first compound 0.1 µM): 0.88 | relative viability (SK-MES-1; first compound 0.3162 µM): 1.12 | relative viability (SK-MES-1; first compound 1 µM): 0.889 | relative viability (NCI-H1355; first compound 0.01 µM): 1.01 | relative viability (NCI-H1355; first compound 0.03162 µM): 0.967 | relative viability (NCI-H1355; first compound 0.1 µM): 1.01 | relative viability (NCI-H1355; first compound 0.3162 µM): 1.1 | relative viability (NCI-H1355; first compound 1 µM): 0.991 | relative viability (LC-2-ad; first compound 0.01 µM): 1.09 | relative viability (LC-2-ad; first compound 0.03162 µM): 0.998 | relative viability (LC-2-ad; first compound 0.1 µM): 1.11 | relative viability (LC-2-ad; first compound 0.3162 µM): 0.951 | relative viability (LC-2-ad; first compound 1 µM): 0.966 | relative viability (ChaGo-K-1; first compound 0.01 µM): 0.903 | relative viability (ChaGo-K-1; first compound 0.03162 µM): 1.05 | relative viability (ChaGo-K-1; first compound 0.1 µM): 0.936 | relative viability (ChaGo-K-1; first compound 0.3162 µM): 0.956 | relative viability (ChaGo-K-1; first compound 1 µM): 0.757 | relative viability (NCI-H1975; first compound 0.01 µM): 0.931 | relative viability (NCI-H1975; first compound 0.03162 µM): 0.956 | relative viability (NCI-H1975; first compound 0.1 µM): 1.29 | relative viability (NCI-H1975; first compound 0.3162 µM): 1.04 | relative viability (NCI-H1975; first compound 1 µM): 0.867 | relative viability (LXF-289; first compound 0.01 µM): 0.979 | relative viability (LXF-289; first compound 0.03162 µM): 0.989 | relative viability (LXF-289; first compound 0.1 µM): 1.02 | relative viability (LXF-289; first compound 0.3162 µM): 0.975 | relative viability (LXF-289; first compound 1 µM): 0.851
